Assay: recombinant UMI read abundance after kanamycin selection (control-corrected) (log10(CPM+1)); higher = more efficient recombination; extreme values may be limits of the assay; sequences stand for … in AGTGCAGAGAAAATCGGCCAGTTTTCTCTGCCTGCAGTCCGCATGCCGTGGGACCCCTTGGGTTCTAACCTGTTGCCTAGATTTATGCAGCGGACTGCCTTTCTCCCAAAGTGATAAACCGG…AGGTTGGTTTCACT; site = the 11-nt donor
Protocol: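 Pooled E. coli donor-specificity screen for the IS621 bridge recombinase. Each library member carries a reprogrammed 11-nt donor and a full-length LE bridge RNA expressed in cis from the natural promoter, with a paired donor-binding loop (8-nt LDG + 4-nt RDG) and a target-binding loop fixed to T5. It is co-electroporated with a T5 target plasmid; recombinase is induced with 0.07 mM IPTG and recombinants are selected on kanamycin. UMIs are counted as CPM, averaged over two biological replicates and corrected by the unselected control. Molecule = full bridge RNA written as DNA, built from the T5 scaffold: LDG = donor specificity nt 1-8, RDG = reverse complement of nt 8-11.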

Point of comparison: “AATTTTGCATGGACCGGTTTTCCCGGTAATCCGTATTTGGA (site AATTTTGCTTC)”, “recombinant UMI read abundance (log10)” value 1. Against it:
- AAGTCGTCATGGACCGGTTTTCCCGGTAATCCGTATTTGCG (site AAGTCGTCTCG) — within 0.2 log units, 1.19
- AAGTGAGCATGGACCGGTTTTCCCGGTAATCCGTATTTGGA (site AAGTGAGCTTC) — within 0.2 log units, 0.812
- AATAATGCATGGACCGGTTTTCCCGGTAATCCGTATTTGGA (site AATAATGCTTC) — within 0.2 log units, 1.06
- AATAATGCATGGACCGGTTTTCCCGGTAATCCGTATTTGGA (site AATCATGCTTC) — lower, 0.217
- AATAATGCATGGACCGGTTTTCCCGGTAATCCGTATTTGGA (site AATGATGCTTC) — lower, 0.361
- AATAATGCATGGACCGGTTTTCCCGGTAATCCGTATTTGGA (site AATTATGCTTC) — lower, 0.707
- AATACTTCATGGACCGGTTTTCCCGGTAATCCGTATTTGGA (site AATACTTCTTC) — higher, 1.81
- AATAGACCATGGACCGGTTTTCCCGGTAATCCGTATTTGAT (site AATAGACCTAT) — lower, 0
- AATAGTACATGGACCGGTTTTCCCGGTAATCCGTATTTGCG (site AATAGTACTCG) — within 0.2 log units, 0.989
- AATCAACCATGGACCGGTTTTCCCGGTAATCCGTATTTGGT (site AATCAACCTAC) — lower, 0.00613
- AATCAATCATGGACCGGTTTTCCCGGTAATCCGTATTTGGC (site AATCAATCTGC) — higher, 2.07
- AATCATTCATGGACCGGTTTTCCCGGTAATCCGTATTTGCT (site AATCATTCTAG) — higher, 2.27
- AATCCTCCATGGACCGGTTTTCCCGGTAATCCGTATTTGGA (site AATCCTCCTTC) — lower, 0
- AATCGTCCATGGACCGGTTTTCCCGGTAATCCGTATTTGAT (site AAACGTCCTAT) — lower, 0.00356
- AATCGTCCATGGACCGGTTTTCCCGGTAATCCGTATTTGAT (site AACCGTCCTAT) — lower, 0.0167
- AATCGTCCATGGACCGGTTTTCCCGGTAATCCGTATTTGAT (site AAGCGTCCTAT) — lower, 0.432
- AATCGTCCATGGACCGGTTTTCCCGGTAATCCGTATTTGAT (site AATCGTCCTAT) — lower, 0.306
- AATCTACCATGGACCGGTTTTCCCGGTAATCCGTATTTGAG (site AATCTACCTCT) — lower, 0.0184
- AATCTCGCATGGACCGGTTTTCCCGGTAATCCGTATTTGCG (site AATCTCGCTCG) — lower, 0.0146
- AATGCCTCATGGACCGGTTTTCCCGGTAATCCGTATTTGAG (site AATGCCTCTCT) — lower, 0.693
- AATGTATCATGGACCGGTTTTCCCGGTAATCCGTATTTGCT (site AATGTAACTAG) — lower, 0.796
- AATGTATCATGGACCGGTTTTCCCGGTAATCCGTATTTGCT (site AATGTACCTAG) — lower, 0.03
- AATGTATCATGGACCGGTTTTCCCGGTAATCCGTATTTGCT (site AATGTAGCTAG) — lower, 0
- AATGTATCATGGACCGGTTTTCCCGGTAATCCGTATTTGCT (site AATGTATCTAG) — higher, 2.56
- AATTAGGCATGGACCGGTTTTCCCGGTAATCCGTATTTGGA (site AATTAAGCTTC) — lower, 0.133
- AATTAGGCATGGACCGGTTTTCCCGGTAATCCGTATTTGGA (site AATTACGCTTC) — lower, 0.011
- AATTAGGCATGGACCGGTTTTCCCGGTAATCCGTATTTGGA (site AATTAGGCTTC) — lower, 0.746
- AATTAGGCATGGACCGGTTTTCCCGGTAATCCGTATTTGGA (site AATTATGCTTC) — lower, 0.317
- AATTATTCATGGACCGGTTTTCCCGGTAATCCGTATTTGGA (site AATTATACTTC) — lower, 0.554
- AATTATTCATGGACCGGTTTTCCCGGTAATCCGTATTTGGA (site AATTATCCTTC) — lower, 0.553
- AATTATTCATGGACCGGTTTTCCCGGTAATCCGTATTTGGA (site AATTATGCTTC) — lower, 0.0186
- AATTATTCATGGACCGGTTTTCCCGGTAATCCGTATTTGGA (site AATTATTCTTC) — higher, 2.28
- AATTCGTCATGGACCGGTTTTCCCGGTAATCCGTATTTGAA (site AATTCGTCTTT) — lower, 0.559
- AATTGTGCATGGACCGGTTTTCCCGGTAATCCGTATTTGGA (site AATTATGCTTC) — lower, 0.773
- AATTGTGCATGGACCGGTTTTCCCGGTAATCCGTATTTGGA (site AATTCTGCTTC) — lower, 0.00901
- AATTGTGCATGGACCGGTTTTCCCGGTAATCCGTATTTGGA (site AATTGTGCTTC) — within 0.2 log units, 0.895
- AATTGTGCATGGACCGGTTTTCCCGGTAATCCGTATTTGGA (site AATTTTGCTTC) — lower, 0.0805
- AATTTAGCATGGACCGGTTTTCCCGGTAATCCGTATTTGTC (site AATTTAGCTGA) — lower, 0.582
- AATTTTGCATGGACCGGTTTTCCCGGTAATCCGTATTTGGA (site AATTATGCTTC) — lower, 0.473
- AATTTTGCATGGACCGGTTTTCCCGGTAATCCGTATTTGGA (site AATTCTGCTTC) — lower, 0.118
- AATTTTGCATGGACCGGTTTTCCCGGTAATCCGTATTTGGA (site AATTGTGCTTC) — lower, 0.154
- ACAAAGACATGGACCGGTTTTCCCGGTAATCCGTATTTGCA (site ACAAAGACTTG) — higher, 3.1
- ACAAAGACATGGACCGGTTTTCCCGGTAATCCGTATTTGCA (site AGGAAGACTTG) — higher, 2.33
- ACAAAGCCATGGACCGGTTTTCCCGGTAATCCGTATTTGGC (site ACAAAGCCTGC) — lower, 0
- ACAAGAACATGGACCGGTTTTCCCGGTAATCCGTATTTGTC (site ACAAGAACTGA) — higher, 1.75
- ACAAGAACATGGACCGGTTTTCCCGGTAATCCGTATTTGTC (site ACACGAACTGA) — lower, 0.00498
- ACAAGAACATGGACCGGTTTTCCCGGTAATCCGTATTTGTC (site ACAGGAACTGA) — lower, 0
- ACAAGAACATGGACCGGTTTTCCCGGTAATCCGTATTTGTC (site ACATGAACTGA) — lower, 0
- ACAAGGACATGGACCGGTTTTCCCGGTAATCCGTATTTGCG (site ACAAGGACTCG) — higher, 2.42
- ACAAGGGCATGGACCGGTTTTCCCGGTAATCCGTATTTGAC (site ACAAGGGCTGT) — higher, 2.69
- ACAAGTGCATGGACCGGTTTTCCCGGTAATCCGTATTTGAC (site ACAAGTGCTGT) — higher, 2.62
- ACAAGTTCATGGACCGGTTTTCCCGGTAATCCGTATTTGTC (site ACAAGTTCTGA) — lower, 0
- ACAATATCATGGACCGGTTTTCCCGGTAATCCGTATTTGCA (site ACAATATCTTG) — higher, 2.85
- ACAATATCATGGACCGGTTTTCCCGGTAATCCGTATTTGCA (site ACACTATCTTG) — higher, 1.83
- ACAATATCATGGACCGGTTTTCCCGGTAATCCGTATTTGCA (site ACAGTATCTTG) — higher, 2.35
- ACAATATCATGGACCGGTTTTCCCGGTAATCCGTATTTGCA (site ACATTATCTTG) — higher, 1.81
- ACAATCTCATGGACCGGTTTTCCCGGTAATCCGTATTTGCA (site ACAATCTCTTG) — higher, 2.51
- ACAATCTCATGGACCGGTTTTCCCGGTAATCCGTATTTGCA (site ACAGTATCTTG) — higher, 1.54
- ACACACCCATGGACCGGTTTTCCCGGTAATCCGTATTTGTG (site ACACACCCTCA) — lower, 0.012
- ACACATCCATGGACCGGTTTTCCCGGTAATCCGTATTTGAA (site ACACATCCTAT) — lower, 0.229
- ACACATCCATGGACCGGTTTTCCCGGTAATCCGTATTTGAA (site ACACATCCTCT) — lower, 0
- ACACATCCATGGACCGGTTTTCCCGGTAATCCGTATTTGAA (site ACACATCCTGT) — lower, 0
- ACACATCCATGGACCGGTTTTCCCGGTAATCCGTATTTGAA (site ACACATCCTTT) — higher, 1.72
- ACACATCCATGGACCGGTTTTCCCGGTAATCCGTATTTGAG (site ACACATCCTAT) — lower, 0.549
- ACACATCCATGGACCGGTTTTCCCGGTAATCCGTATTTGAG (site ACACATCCTCT) — lower, 0.668
- ACACATCCATGGACCGGTTTTCCCGGTAATCCGTATTTGAG (site ACACATCCTGT) — lower, 0
- ACACATCCATGGACCGGTTTTCCCGGTAATCCGTATTTGAG (site ACACATCCTTT) — lower, 0.381
- ACACCTACATGGACCGGTTTTCCCGGTAATCCGTATTTGTG (site ACAACTACTCA) — lower, 0.0154
- ACACCTACATGGACCGGTTTTCCCGGTAATCCGTATTTGTG (site ACACCTACTCA) — lower, 0.165
- ACACCTACATGGACCGGTTTTCCCGGTAATCCGTATTTGTG (site ACAGCTACTCA) — lower, 0.0267
- ACACCTACATGGACCGGTTTTCCCGGTAATCCGTATTTGTG (site ACATCTACTCA) — lower, 0.028

From the supplement of paper PMC11208160
